Reference: patent US20260207585A1, “METHODS AND COMPOSITIONS FOR THE TREATMENT OF PARKINSON'S DISEASE, HUNTINGTON'S DISEASE, AMYOTROPHIC LATERAL SCLEROSIS, AND LEARNING DISORDERS” (Cedars-Sinai Medical Center, priority 2022, published 2026)
Read-outs that look alike come from different tables or passages of the source.

Experiments:
[1] = target: T1, SUV39H1 (Homo sapiens, UniProt O43463); assay: Methyltransferase inhibition panel: SUV39H1; format: biochemical
T1 sequence (O43463 1-412): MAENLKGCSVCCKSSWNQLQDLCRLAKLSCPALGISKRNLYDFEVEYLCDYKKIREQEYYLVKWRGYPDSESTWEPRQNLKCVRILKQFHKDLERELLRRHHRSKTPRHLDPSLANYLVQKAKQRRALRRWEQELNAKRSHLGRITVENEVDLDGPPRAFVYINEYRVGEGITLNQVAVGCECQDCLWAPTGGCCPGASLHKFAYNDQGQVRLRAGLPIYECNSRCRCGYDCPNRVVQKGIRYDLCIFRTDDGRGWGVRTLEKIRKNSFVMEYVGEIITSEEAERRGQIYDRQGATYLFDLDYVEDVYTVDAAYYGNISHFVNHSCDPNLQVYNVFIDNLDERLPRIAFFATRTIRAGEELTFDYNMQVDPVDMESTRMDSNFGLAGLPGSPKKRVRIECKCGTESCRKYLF
Method: (§1) The ability of ETP69 to inhibit methyltransferases was tested.

[2] = target: MLL2 Complex (Homo sapiens, UniProt O14686); assay: Methyltransferase inhibition panel: MLL2 Complex; format: biochemical
Method: as §1

[3] = target: PRMT8 (Homo sapiens, UniProt Q9NR22); assay: Methyltransferase inhibition panel: PRMT8; format: biochemical
Method: as §1

[4] = target: T2, SMYD3 (Homo sapiens, UniProt Q9H7B4); assay: Methyltransferase inhibition panel: SMYD3; format: biochemical
T2 sequence (Q9H7B4 1-428): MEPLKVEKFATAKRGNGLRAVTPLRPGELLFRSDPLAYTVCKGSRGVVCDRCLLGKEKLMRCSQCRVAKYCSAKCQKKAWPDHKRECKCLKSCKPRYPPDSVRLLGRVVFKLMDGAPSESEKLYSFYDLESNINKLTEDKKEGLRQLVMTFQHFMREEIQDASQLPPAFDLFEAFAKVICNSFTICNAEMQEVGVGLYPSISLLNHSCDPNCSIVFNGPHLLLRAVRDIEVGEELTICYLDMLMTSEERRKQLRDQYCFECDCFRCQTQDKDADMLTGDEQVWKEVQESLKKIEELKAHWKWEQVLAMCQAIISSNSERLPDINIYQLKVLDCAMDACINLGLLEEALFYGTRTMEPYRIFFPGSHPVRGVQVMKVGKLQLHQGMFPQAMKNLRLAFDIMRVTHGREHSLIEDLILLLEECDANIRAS
Method: as §1

[5] = system: AD+ mice; assay: Open Field Barnes Maze test; format: in vivo; details: AD+ mice vs AD+ mice treated with DMSO
Method: The effects of single and repeated ETP69 injections in mice were tested. The experimental timeline is depicted in FIG. 5. Three parallel injection conditions were tested: a single ETP69 condition, a boosted ETP69 injection, and repeated ETP69 injections. The single injection mice received one injection of ETP69 or DMSO at Day 0. The mice that received a boosted injection received one injection of ETP69 or DMSO at day 0 and one injection at day 9. The mice that received repeated injections received 11 injections of ETP69 or DMSO at day 0 or day 9. Both wildtype and AD model (APP/PS1-transgenic) mice were tested.
The results of the Open Field Barnes Maze test indicate hippocampal-based spatial memory. FIG. 7A depicts a schematic of the Barnes Maze Test. […] The results of the fear conditioning test indicate spatial memory.

[6] = target: T3, G9a (Homo sapiens, UniProt Q96KQ7); assay: Methyltransferase inhibition panel: G9a; format: biochemical
T3 sequence (Q96KQ7 1-1210): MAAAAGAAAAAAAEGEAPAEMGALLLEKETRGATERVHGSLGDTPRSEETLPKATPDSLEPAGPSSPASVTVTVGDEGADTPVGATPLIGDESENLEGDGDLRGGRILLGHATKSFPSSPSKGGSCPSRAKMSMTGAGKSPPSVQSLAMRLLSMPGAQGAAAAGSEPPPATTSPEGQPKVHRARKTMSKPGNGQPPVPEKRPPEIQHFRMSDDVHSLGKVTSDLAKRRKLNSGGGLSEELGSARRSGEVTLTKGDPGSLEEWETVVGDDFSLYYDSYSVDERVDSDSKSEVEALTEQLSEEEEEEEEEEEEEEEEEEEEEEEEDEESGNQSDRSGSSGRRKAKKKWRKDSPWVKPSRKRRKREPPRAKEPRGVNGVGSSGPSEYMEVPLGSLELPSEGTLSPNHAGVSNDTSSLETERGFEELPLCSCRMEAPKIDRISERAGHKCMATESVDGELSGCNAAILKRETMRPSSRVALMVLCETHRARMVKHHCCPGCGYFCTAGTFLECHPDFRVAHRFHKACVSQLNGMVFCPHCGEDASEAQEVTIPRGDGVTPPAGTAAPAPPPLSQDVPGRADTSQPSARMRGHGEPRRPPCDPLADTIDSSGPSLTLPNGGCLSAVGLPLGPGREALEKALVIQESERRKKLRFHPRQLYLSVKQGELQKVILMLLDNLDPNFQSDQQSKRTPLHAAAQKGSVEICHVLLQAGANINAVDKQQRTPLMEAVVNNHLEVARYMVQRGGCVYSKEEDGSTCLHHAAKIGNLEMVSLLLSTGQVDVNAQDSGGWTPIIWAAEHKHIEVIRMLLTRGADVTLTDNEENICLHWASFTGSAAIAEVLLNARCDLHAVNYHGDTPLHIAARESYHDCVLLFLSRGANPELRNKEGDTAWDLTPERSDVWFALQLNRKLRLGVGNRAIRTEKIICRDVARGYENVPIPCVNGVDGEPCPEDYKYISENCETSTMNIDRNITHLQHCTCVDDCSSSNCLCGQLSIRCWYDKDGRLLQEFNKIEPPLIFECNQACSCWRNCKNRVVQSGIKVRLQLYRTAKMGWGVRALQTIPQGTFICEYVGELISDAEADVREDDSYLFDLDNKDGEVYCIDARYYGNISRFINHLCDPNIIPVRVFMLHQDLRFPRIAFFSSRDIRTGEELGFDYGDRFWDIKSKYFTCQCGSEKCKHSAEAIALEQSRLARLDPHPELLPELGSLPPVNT
Method: as §1

[7] = target: ASH1L (Homo sapiens, UniProt Q9NR48); assay: Methyltransferase inhibition panel: ASH1L; format: biochemical
Method: as §1

[8] = target: MLL1 Complex (Homo sapiens, UniProt Q03164); assay: Methyltransferase inhibition panel: MLL1 Complex; format: biochemical
Method: as §1

[9] = read-out: Enzyme % Activity (relative to DMSO controls) Data 1
[10] = read-out: Enzyme % Activity (relative to DMSO controls) Data 2
[11] = NT1721 20 μM, substrate Nucleosomes 0.05 mg/mL

Sequence of MLL2 Complex (O14686 5319-5537): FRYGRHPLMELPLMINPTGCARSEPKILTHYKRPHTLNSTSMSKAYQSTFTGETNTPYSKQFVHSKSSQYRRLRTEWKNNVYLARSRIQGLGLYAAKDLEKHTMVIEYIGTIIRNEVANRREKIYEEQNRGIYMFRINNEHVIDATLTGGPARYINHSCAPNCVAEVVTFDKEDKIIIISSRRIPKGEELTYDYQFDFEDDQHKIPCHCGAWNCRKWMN
Sequence of MLL2 Complex (Q9UBL3 whole entry, further chain): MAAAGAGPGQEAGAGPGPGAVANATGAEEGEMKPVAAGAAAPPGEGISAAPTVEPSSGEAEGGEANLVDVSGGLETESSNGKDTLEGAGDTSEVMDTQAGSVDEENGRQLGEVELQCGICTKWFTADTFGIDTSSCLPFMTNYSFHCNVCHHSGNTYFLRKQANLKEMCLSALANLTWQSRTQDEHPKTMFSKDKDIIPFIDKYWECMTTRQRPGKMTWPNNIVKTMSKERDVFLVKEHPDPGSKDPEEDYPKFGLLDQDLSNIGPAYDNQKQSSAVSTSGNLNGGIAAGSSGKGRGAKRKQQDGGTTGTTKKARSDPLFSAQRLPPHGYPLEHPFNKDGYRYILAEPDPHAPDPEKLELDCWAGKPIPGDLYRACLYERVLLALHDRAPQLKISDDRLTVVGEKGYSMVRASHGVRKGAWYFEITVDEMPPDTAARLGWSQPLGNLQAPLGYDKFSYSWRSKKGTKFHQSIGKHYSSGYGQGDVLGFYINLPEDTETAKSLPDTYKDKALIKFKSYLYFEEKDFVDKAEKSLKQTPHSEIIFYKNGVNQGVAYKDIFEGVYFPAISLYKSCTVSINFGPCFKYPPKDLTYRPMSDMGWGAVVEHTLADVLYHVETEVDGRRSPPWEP
Sequence of MLL2 Complex (Q9C005 whole entry, further chain): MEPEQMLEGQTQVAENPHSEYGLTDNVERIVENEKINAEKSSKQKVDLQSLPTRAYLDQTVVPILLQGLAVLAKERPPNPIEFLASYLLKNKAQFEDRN
Sequence of MLL2 Complex (Q15291 whole entry, further chain): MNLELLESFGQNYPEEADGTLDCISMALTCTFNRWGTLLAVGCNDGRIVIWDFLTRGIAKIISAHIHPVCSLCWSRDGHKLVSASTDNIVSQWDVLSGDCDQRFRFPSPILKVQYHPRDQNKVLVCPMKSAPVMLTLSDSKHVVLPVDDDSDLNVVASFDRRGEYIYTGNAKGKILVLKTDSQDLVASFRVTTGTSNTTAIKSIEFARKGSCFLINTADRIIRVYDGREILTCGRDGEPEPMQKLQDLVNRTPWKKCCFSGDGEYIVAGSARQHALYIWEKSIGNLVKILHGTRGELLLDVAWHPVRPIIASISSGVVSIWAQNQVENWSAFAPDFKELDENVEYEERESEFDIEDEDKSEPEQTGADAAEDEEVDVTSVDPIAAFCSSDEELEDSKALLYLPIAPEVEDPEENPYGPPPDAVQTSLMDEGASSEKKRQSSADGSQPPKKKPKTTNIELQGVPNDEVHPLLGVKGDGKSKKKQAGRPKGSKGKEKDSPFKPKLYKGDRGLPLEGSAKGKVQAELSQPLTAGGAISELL
Sequence of MLL1 Complex (Q03164 3745-3969): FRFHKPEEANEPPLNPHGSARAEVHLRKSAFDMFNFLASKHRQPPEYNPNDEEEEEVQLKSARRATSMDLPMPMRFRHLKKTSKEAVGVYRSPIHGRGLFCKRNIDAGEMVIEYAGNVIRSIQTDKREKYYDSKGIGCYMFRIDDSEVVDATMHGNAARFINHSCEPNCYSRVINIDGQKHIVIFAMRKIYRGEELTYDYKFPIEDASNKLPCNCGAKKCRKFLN
Sequence of MLL1 Complex (Q9UBL3 96-628, further chain): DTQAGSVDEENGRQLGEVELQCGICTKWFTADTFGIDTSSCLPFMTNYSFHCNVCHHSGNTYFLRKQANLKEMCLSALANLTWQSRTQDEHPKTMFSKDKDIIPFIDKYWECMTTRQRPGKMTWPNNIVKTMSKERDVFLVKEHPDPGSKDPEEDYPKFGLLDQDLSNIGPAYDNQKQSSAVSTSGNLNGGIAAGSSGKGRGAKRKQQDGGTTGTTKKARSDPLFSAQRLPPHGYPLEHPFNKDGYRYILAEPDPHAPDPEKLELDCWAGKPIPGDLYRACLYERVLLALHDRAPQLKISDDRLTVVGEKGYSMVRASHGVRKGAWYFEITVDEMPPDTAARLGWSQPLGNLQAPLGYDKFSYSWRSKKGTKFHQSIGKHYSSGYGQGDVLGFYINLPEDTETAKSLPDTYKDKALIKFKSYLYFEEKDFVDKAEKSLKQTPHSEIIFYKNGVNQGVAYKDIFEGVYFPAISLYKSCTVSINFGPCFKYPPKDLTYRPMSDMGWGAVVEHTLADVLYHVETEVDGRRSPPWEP
Sequence of MLL1 Complex (Q9C005 whole entry, further chain): as the sequence (Q9C005 whole entry, further chain) above
Sequence of MLL1 Complex (Q15291 whole entry, further chain): as the sequence (Q15291 whole entry, further chain) above
Sequence of PRMT8 (Q9NR22 whole entry): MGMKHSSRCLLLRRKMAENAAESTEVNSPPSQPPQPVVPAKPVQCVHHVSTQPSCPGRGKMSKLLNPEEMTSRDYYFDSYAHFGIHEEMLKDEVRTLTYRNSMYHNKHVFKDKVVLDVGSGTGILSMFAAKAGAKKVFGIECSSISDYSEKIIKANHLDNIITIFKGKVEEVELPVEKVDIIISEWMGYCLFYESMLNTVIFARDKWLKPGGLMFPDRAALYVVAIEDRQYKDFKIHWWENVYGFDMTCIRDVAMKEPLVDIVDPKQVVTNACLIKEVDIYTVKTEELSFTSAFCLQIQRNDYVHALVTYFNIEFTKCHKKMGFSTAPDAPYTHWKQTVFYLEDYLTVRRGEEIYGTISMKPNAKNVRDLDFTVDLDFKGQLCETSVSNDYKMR

In the case of `CN1C(=O)[C@@]23C[C@](C)(C#N)[C@H](c4ccc5c(c4)OCO5)N2C(=O)[C@]1(C)SS3` (racemic) [ETP69, Rac-(3S,6S,7S,8aS)-6-(benzo[d][1,3]dioxol-5-yl)-2,3,7-trimethyl-1,4-dioxohexahydro-6H-3,8a-epidithiopyrrolo[1,2-a]pyrazine-7-carbonitrile], the remaining activity at 20 µM [1, 9] is reported as 2.36%, the remaining activity at 20 µM [1, 10] is reported as 2.53% and the “inhibition relative to DMSO controls” value ([1]; summary of Table 1) is reported as “at least 7500”. The remaining activity at 20 µM [2, 9] was 19%, the remaining activity at 20 µM [2, 10] was 20.4% and the “inhibition relative to DMSO controls” value ([2]; summary of Table 1) was “at least 7500”. It also gave a remaining activity at 20 µM [3, 9] of 95.7%, a remaining activity at 20 µM [3, 10] of 94.7% and a remaining activity at 20 µM [4, 9] of 8.99%. For the same molecule, the remaining activity at 20 µM [4, 10] was 7.71%, the “inhibition relative to DMSO controls” value ([4]; summary of Table 1) was “at least 7500” and the memory retention [5] was “improvement”. For the same molecule, the remaining activity at 2.5 µM [6, 9] was 40.9%, the remaining activity at 2.5 µM [6, 10] was 38.7% and the “inhibition relative to DMSO controls” value ([6]; summary of Table 1) was “at least 7500”. For the same molecule, the “Enzyme % Activity (relative to DMSO controls) Data 1” value [7, 11] was 3.42%, the “Enzyme % Activity (relative to DMSO controls) Data 2” value [7, 11] was 4.17% and the “inhibition relative to DMSO controls” value ([7]; summary of Table 1) was “at least 7500”. The “Enzyme % Activity (relative to DMSO controls) Data 1” value [8, 11] was 5.08%, the “Enzyme % Activity (relative to DMSO controls) Data 2” value [8, 11] was 5.33% and the “inhibition relative to DMSO controls” value ([8]; summary of Table 1) was “at least 7500”.
